According to ChEMBL document CHEMBL1150749, “Novel Cleistanthane Diterpenoids from Pogostemon auricularis” (1988):

Legend:
Assay type in all cases: functional
Settings in all cases: Cavia porcellus
Ileum [1] = experiment: Inhibition of spasmogen response in guinea pig ileum at 2.5 ug/mL
Ileum [2] = experiment: Inhibition of spasmogen response in guinea pig ileum at 10 ug/mL
Ileum [3] = experiment: Inhibition of spasmogen response in guinea pig ileum at 5 ug/mL

C=C[C@H]1C(=C)CC[C@H]2[C@H]1[C@@H](OC(C)=O)C[C@@H]1[C@]2(C)CCC[C@@]1(C)C(=O)O
inhibition at 2.5 µg/mL (Ileum [1]): 10% | inhibition at 10 µg/mL (Ileum [2]): 69% | inhibition at 5 µg/mL (Ileum [3]): 19%
